pEC50: −log10 of the molar value.
Target: T1, human GPR120 (Homo sapiens, UniProt Q5NUL3)
T1 construct: host or cells: HEK293 cells co-expressing Gqi5
T1 sequence (Q5NUL3 1-361): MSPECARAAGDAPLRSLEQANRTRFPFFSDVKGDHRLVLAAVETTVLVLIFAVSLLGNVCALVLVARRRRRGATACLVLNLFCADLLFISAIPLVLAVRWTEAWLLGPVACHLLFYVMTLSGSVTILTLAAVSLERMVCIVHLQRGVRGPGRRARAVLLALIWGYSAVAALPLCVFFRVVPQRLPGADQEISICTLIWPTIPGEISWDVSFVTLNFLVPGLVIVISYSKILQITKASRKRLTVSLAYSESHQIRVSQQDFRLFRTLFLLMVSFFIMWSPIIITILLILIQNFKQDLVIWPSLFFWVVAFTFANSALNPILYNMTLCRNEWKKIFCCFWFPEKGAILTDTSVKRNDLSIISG
Test: Intracellular Ca2+ assay in human GPR120 stable cell line (HEK293 co-expressing Gqi5), Flexstation
Format: cell-based
Settings: for % Activity (GW9508 Reference Compound): % activity at 5 μM compared to the maximal activity of GW9508 at 6.7 μM (=100%), human GPR120 cells, Ca2+ fluorescence
Summary of the method: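 HEK293 cells stably co-expressing Gqi5 and Flag-tagged human GPR120, loaded with Calcium 4 dye in HBSS/HEPES pH 7.4 at 37 °C; compounds at eight concentrations, 0.00001–20 μM, fluorescence (485/525 nm) read 90 s. EC50 from Max−Min change; percent activity relative to GW9508 maximum at 6.7 μM.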

COc1cc(CCC(=O)O)c(Br)cc1OCc1cc(F)cc2c1OC(C)(C)C2 [Example 56, 3-(2-bromo-4-((5-fluoro-2,2-dimethyl-2,3-dihydrobenzofuran-7-yl)methoxy)-5-methoxyphenyl)propanoic acid]
% Activity (GW9508 Reference Compound): 108.51%

CC1(C)Cc2cccc(COc3c(F)cc(C4CC4C(=O)O)cc3F)c2O1 (centres unmarked) [Example 24, 2-(4-((2,2-dimethyl-2,3-dihydrobenzofuran-7-yl)methoxy)-3,5-difluorophenyl)cyclopropanecarboxylic acid]
% Activity (GW9508 Reference Compound): 100.3%

CC1(C)Cc2cc(F)cc(COc3ccc4c(CC(=O)O)cc(=O)oc4c3)c2O1 [Example 263, 2-(7-((5-fluoro-2,2-dimethyl-2,3-dihydrobenzofuran-7-yl)methoxy)-2-oxo-2H-chromen-4-yl)acetic acid]
% Activity (GW9508 Reference Compound): 5.98%

CC1(C)Cc2cc(F)cc(COc3ccc(C4CC4C(=O)O)cc3)c2O1 (single isomer, unassigned) [Example 131A, 2-(4-((5-fluoro-2,2-dimethyl-2,3-dihydrobenzofuran-7-yl)methoxy)phenyl)cyclopropanecarboxylic acid]
% Activity (GW9508 Reference Compound): 103.75%

CC(Cc1ccc(COc2cccc3c2OC(C)(C)C3)c(F)c1)C(=O)O (centres unmarked) [Example 44, 3-(4-(((2,2-dimethyl-2,3-dihydrobenzofuran-7-yl)oxy)methyl)-3-fluorophenyl)-2-methylpropanoic acid]
% Activity (GW9508 Reference Compound): 157.14%

CC(Cc1ccc(OCc2cc(F)cc3c2OC(C)(C)C3)cc1)C(=O)NO (centres unmarked) [Example 264, 3-(4-((5-fluoro-2,2-dimethyl-2,3-dihydrobenzofuran-7-yl)methoxy)phenyl)-N-hydroxy-2-methylpropanamide]
% Activity (GW9508 Reference Compound): 110.24%

CC(Cc1ccc(OCc2cc(Cl)cc3c2OC(C)(C)C3O)c(F)c1)C(=O)O (centres unmarked) [Example 80, 3-(4-((5-chloro-3-hydroxy-2,2-dimethyl-2,3-dihydrobenzofuran-7-yl)methoxy)-3-fluorophenyl)-2-methylpropanoic acid]
% Activity (GW9508 Reference Compound): 86.25%

CC1(C)Cc2cc(F)cc(COc3ccc4c(c3)CC[C@@H]4CC(=O)O)c2O1 [Example 178, (R)-2-(5-((5-fluoro-2,2-dimethyl-2,3-dihydrobenzofuran-7-yl)methoxy)-2,3-dihydro-1H-inden-1-yl)acetic acid]
% Activity (GW9508 Reference Compound): 106%

CC(Cc1ccc(OCc2cc(OC(F)(F)F)cc3c2OC(C)(C)C3)cc1)C(=O)O (centres unmarked) [Example 124, 3-(4-((2,2-dimethyl-5-(trifluoromethoxy)-2,3-dihydrobenzofuran-7-yl)methoxy)phenyl)-2-methylpropanoic acid]
% Activity (GW9508 Reference Compound): 131.64%

CC(CC(=O)O)c1cc(F)c(OCc2cc(Cl)cc3c2OC(C)(C)C3)c(F)c1 (centres unmarked) [Example 106, 3-(4-((5-chloro-2,2-dimethyl-2,3-dihydrobenzofuran-7-yl)methoxy)-3,5-difluorophenyl)butanoic acid]
% Activity (GW9508 Reference Compound): 154.51%

COc1cccc(-c2cc(COc3ccc(CC(C)C(=O)O)cc3)c3c(c2)CC(C)(C)O3)c1 (centres unmarked) [Example 86, 3-(4-((5-(3-methoxyphenyl)-2,2-dimethyl-2,3-dihydrobenzofuran-7-yl)methoxy)phenyl)-2-methylpropanoic acid]
% Activity (GW9508 Reference Compound): 5.23%

CC(Cc1cc(Cl)c(OCc2cc(Cl)cc3c2OC(C)(C)C3)c(Cl)c1)C(=O)O (centres unmarked) [Example 14, 3-(3,5-dichloro-4-((5-chloro-2,2-dimethyl-2,3-dihydrobenzofuran-7-yl)methoxy)phenyl)-2-methylpropanoic acid]
% Activity (GW9508 Reference Compound): 84.49%

CC(Cc1ccc(OCc2ccc(C(F)(F)F)c3c2OC(C)(C)C3)cc1)C(=O)O (centres unmarked) [Example 34, 3-(4-((2,2-dimethyl-4-(trifluoromethyl)-2,3-dihydrobenzofuran-7-yl)methoxy)phenyl)-2-methylpropanoic acid]
% Activity (GW9508 Reference Compound): 117.9%

CCc1cc(OCc2cc(F)cc3c2OC(C)(C)C3)c(F)cc1CCC(=O)O [Example 220, 3-(2-ethyl-5-fluoro-4-((5-fluoro-2,2-dimethyl-2,3-dihydrobenzofuran-7-yl)methoxy)phenyl)propanoic acid]
% Activity (GW9508 Reference Compound): 115.86%

CC1(C)Cc2cc(Cl)cc(CNc3ccc(CCC(=O)O)cc3)c2O1 [Example 127, 3-(4-(((5-chloro-2,2-dimethyl-2,3-dihydrobenzofuran-7-yl)methyl)amino)phenyl)propanoic acid]
% Activity (GW9508 Reference Compound): 152.93%

CC1(C)Cc2cc(Cl)cc(COc3ccc4c(c3)CC[C@@H]4CC(=O)O)c2O1 [Example 179, (R)-2-(5-((5-chloro-2,2-dimethyl-2,3-dihydrobenzofuran-7-yl)methoxy)-2,3-dihydro-1H-inden-1-yl)acetic acid]
% Activity (GW9508 Reference Compound): 105.44%

[2H]C1([2H])c2cc(Cl)cc(COc3ccc(CC(C)C(=O)O)cc3F)c2OC1(C)C (centres unmarked) [Example 146, 3-(4-((3,3-dideuterio-5-chloro-2,2-dimethyl-2,3-dihydrobenzofuran-7-yl)methoxy)-3-fluorophenyl)-2-methylpropanoic acid]
% Activity (GW9508 Reference Compound): 140.72%

Cc1c(CCC(=O)O)ccc(OCc2cc(Cl)cc3c2CC(C)(C)O3)c1C [Example 267, 3-(4-((6-chloro-2,2-dimethyl-2,3-dihydrobenzofuran-4-yl)methoxy)-2,3-dimethylphenyl)propanoic acid]
% Activity (GW9508 Reference Compound): 140.82%

Cc1cc(COc2c(F)cc(CC(C)C(=O)O)cc2F)c2c(c1)CC(C)(C)O2 (centres unmarked) [Example 5, 3-(3,5-difluoro-4-((2,2,5-trimethyl-2,3-dihydrobenzofuran-7-yl)methoxy)phenyl)-2-methylpropanoic acid]
% Activity (GW9508 Reference Compound): 149.2%

COc1cc(COc2ccc(CC(C)C(=O)O)cc2)c2c(c1)CC(C)(C)O2 (centres unmarked) [Example 108, 3-(4-((5-methoxy-2,2-dimethyl-2,3-dihydrobenzofuran-7-yl)methoxy)phenyl)-2-methylpropanoic acid]
% Activity (GW9508 Reference Compound): 143.85%

[2H]C([2H])(Oc1ccc(CC(C)C(=O)O)cc1F)c1cc(F)cc2c1OC(C)(C)C2 (centres unmarked) [Example 230, 3-(4-(dideuterio(5-fluoro-2,2-dimethyl-2,3-dihydrobenzofuran-7-yl)methoxy)-3-fluorophenyl)-2-methylpropanoic acid]
% Activity (GW9508 Reference Compound): 86.25%

CC1(C)Cc2cc(Cl)cc(COc3ccc4c(c3)CCC4CC(=O)O)c2O1 (centres unmarked) [Example 36, 2-(5-((5-chloro-2,2-dimethyl-2,3-dihydrobenzofuran-7-yl)methoxy)-2,3-dihydro-1H-inden-1-yl)acetic acid]
% Activity (GW9508 Reference Compound): 122.9%

CC1(C)Cc2cc(Cl)cc(COc3ccc(SCC(=O)O)cc3)c2O1 [Example 59, 2-((4-((5-chloro-2,2-dimethyl-2,3-dihydrobenzofuran-7-yl)methoxy)phenyl)thio)-acetic acid]
% Activity (GW9508 Reference Compound): 117.58%

COc1cc(CC(C)C(=O)O)ccc1OCc1cc(F)cc2c1OC(C)(C)C2 (centres unmarked) [Example 7, 3-(4-((5-fluoro-2,2-dimethyl-2,3-dihydrobenzofuran-7-yl)methoxy)-3-methoxyphenyl)-2-methylpropanoic acid]
% Activity (GW9508 Reference Compound): 168.2%

CC(Cc1cc(F)c(OCc2cccc3c2OC(C)C3C)c(F)c1)C(=O)O (centres unmarked) [Example 40, 3-(4-((2,3-dimethyl-2,3-dihydrobenzofuran-7-yl)methoxy)-3,5-difluorophenyl)-2-methylpropanoic acid]
% Activity (GW9508 Reference Compound): 95.33%
pEC50 (human GPR120 stably expressing cells, Ca2+ fluorescence (Max-Min), eight concentrations 0.00001 to 20 μM): < 5.00

CC(Cc1ccc(OCc2cc(Cl)cc3c2OC(C)(C)C3)cc1Cl)C(=O)O (centres unmarked) [Example 26, 3-(2-chloro-4-((5-chloro-2,2-dimethyl-2,3-dihydrobenzofuran-7-yl)methoxy)phenyl)-2-methylpropanoic acid]
% Activity (GW9508 Reference Compound): 163.7%

CC(=O)Nc1cc(COc2ccc(CC(C)C(=O)O)cc2)c2c(c1)CC(C)(C)O2 (centres unmarked) [Example 123, 3-(4-((5-acetamido-2,2-dimethyl-2,3-dihydrobenzofuran-7-yl)methoxy)phenyl)-2-methylpropanoic acid]
% Activity (GW9508 Reference Compound): 47.01%

CC(Cc1cc(F)c(OCc2cccc3cn[nH]c23)c(F)c1)C(=O)O (centres unmarked) [Example 260, 3-(4-((1H-indazol-7-yl)methoxy)-3,5-difluorophenyl)-2-methylpropanoic acid]
% Activity (GW9508 Reference Compound): 16.67%

CC1(C)Cc2cc(F)cc(COc3ccc(CCC(=O)O)c(OC(F)(F)F)c3)c2O1 [Example 136, 3-(4-((5-fluoro-2,2-dimethyl-2,3-dihydrobenzofuran-7-yl)methoxy)-2-(trifluoromethoxy)phenyl)propanoic acid]
% Activity (GW9508 Reference Compound): 140.51%

CC(Cc1ccc(OCc2cc(Cl)cc3c2OC(C)(C)C3)c(CN(C)C)c1)C(=O)O (centres unmarked) [Example 88, 3-(4-((5-chloro-2,2-dimethyl-2,3-dihydrobenzofuran-7-yl)methoxy)-3-((dimethylamino)methyl)phenyl)-2-methylpropanoic acid]
% Activity (GW9508 Reference Compound): 118.92%

CC1(C)Cc2cc(F)cc(COc3c(F)cc(CC4CC4C(=O)O)cc3F)c2O1 (single isomer, unassigned) [Example 184A, 2-(3,5-difluoro-4-((5-fluoro-2,2-dimethyl-2,3-dihydrobenzofuran-7-yl)methoxy)benzyl)cyclopropanecarboxylic acid]
% Activity (GW9508 Reference Compound): 95.58%

— US20130109734A1 (Metabolex, Inc., priority 2010, published 2013)
